Reference: patent US9113629B2, “4-amino-6-(4-substituted-phenyl)-picolinates and 6-amino-2-(4-substituted-phenyl)-pyrimidine-4-carboxylates and their use as herbicides” (DOW AGROSCIENCES LLC, priority 2013, dated 2015)
Where two headings read alike, the source gives them in different places.

What was measured:
[1] = test system: Key Broadleaf Weed and Crop Species; assay: Post-emergent Test II herbicidal activity (Table 5); format: in vivo; settings: post-emergence, 336 h, post-emergent, 14 days after application; for pest or weed control at 70 g/ha: 70 g ai/ha; for pest or weed control at 140 g/ha: 140 g ai/ha
How it was run: (§1)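 Visual injury ratings (0 = no injury, 100 = complete kill) were taken 14 d after treatment, relative to untreated plants. Seedlings at the first–second true leaf stage received overhead spray at 187 L/ha; the highest rate was serially diluted to ½×, ¼×, ⅛× and 1/16×.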

[2] = test system: Key Grass and Sedge Weeds as well as Grass Crops; assay: Post-emergent Test II herbicidal activity (Table 6); format: in vivo; settings: post-emergence, 336 h; for pest or weed control at 70 g/ha: application rate 70 g ai/ha; for pest or weed control at 140 g/ha: application rate 140 g ai/ha
How it was run: as §1

[3] = ABUTH: velvetleaf (Abutilon theophrasti), read-out: Visual Growth Reduction (%) 14 Days After Application ABUTH
[4] = AMARE: redroot pigweed (Amaranthus retroflexus), read-out: Visual Growth Reduction (%) 14 Days After Application AMARE
[5] = BRSNN: oilseed-rape, canola (Brassica napus), read-out: Visual Growth Reduction (%) 14 Days After Application BRSNN
[6] = CHEAL: lambsquarters (Chenopodium album), read-out: Visual Growth Reduction (%) 14 Days After Application CHEAL
[7] = EPHHL: wild poinsettia (Euphorbia heterophylla), read-out: Visual Growth Reduction (%) 14 Days After Application EPHHL
[8] = HELAN: sunflower (Helianthus annuus), read-out: Visual Growth Reduction (%) 14 Days After Application HELAN
[9] = VIOTR: wild pansy (Viola tricolor), read-out: Visual Growth Reduction (%) 14 Days After Application VIOTR
[10] = Triticum aestivum, TRZSS (wheat), read-out: Visual Growth Reduction (%) 14 Days After Application, TRZSS
[11] = CYPES: yellow nutsedge (Cyperus esculentus), read-out: Visual Growth Reduction (%) 14 Days After Application, CYPES
[12] = DIGSA: crabgrass (Digitaria sanguinalis), read-out: Visual Growth Reduction (%) 14 Days After Application, DIGSA
[13] = ECHCG: barnyardgrass (Echinochloa crus-galli), read-out: Visual Growth Reduction (%) 14 Days After Application, ECHCG
[14] = ORYSA: rice (Oryza sativa), read-out: Visual Growth Reduction (%) 14 Days After Application, ORYSA
[15] = SETFA: giant foxtail (Setaria faberi), read-out: Visual Growth Reduction (%) 14 Days After Application, SETFA
[16] = SORVU: grain sorghum (Sorghum vulgare), read-out: Visual Growth Reduction (%) 14 Days After Application, SORVU
[17] = ZEAMX: maize, corn (Zea mays), read-out: Visual Growth Reduction (%) 14 Days After Application, ZEAMX
[18] = TRZSS (wheat, Triticum aestivum), read-out: Visual Growth Reduction (%) 14 Days After Application, TRZSS

Row | Structure (SMILES) | pest or weed control at 70 g/ha [1, 3] [%] | pest or weed control at 140 g/ha [1, 3] [%] | pest or weed control at 70 g/ha [1, 4] [%] | pest or weed control at 140 g/ha [1, 4] [%] | pest or weed control at 70 g/ha [1, 5] [%] | pest or weed control at 140 g/ha [1, 5] [%] | pest or weed control at 70 g/ha [1, 6] [%] | pest or weed control at 140 g/ha [1, 6] [%] | pest or weed control at 70 g/ha [1, 7] [%] | pest or weed control at 140 g/ha [1, 7] [%] | pest or weed control at 70 g/ha [1, 8] [%] | pest or weed control at 140 g/ha [1, 8] [%] | pest or weed control at 70 g/ha [1, 9] [%] | pest or weed control at 140 g/ha [1, 9] [%] | pest or weed control at 70 g/ha [2, 11] [%] | pest or weed control at 140 g/ha [2, 11] [%] | pest or weed control at 70 g/ha [2, 12] [%] | pest or weed control at 140 g/ha [2, 12] [%] | pest or weed control at 70 g/ha [2, 13] [%] | pest or weed control at 140 g/ha [2, 13] [%] | also measured
1 | C=Cc1c(N)nc(-c2ccc(F)c(F)c2F)nc1C(=O)O [Compound 191, 6-Amino-2-(2,3,4-trifluorophenyl)-5-vinylpyrimidine-4-carboxylic acid] | 60 to 74 | 95 to 100 | 95 to 100 | 95 to 100 | 95 to 100 | 95 to 100 | 95 to 100 | 95 to 100 | 95 to 100 | 95 to 100 | 95 to 100 | 95 to 100 | 45 to 59 | 45 to 59 | 0 to 29 | 60 to 74 | 60 to 74 | 75 to 84 | 85 to 94 | 75 to 84 | pest or weed control at 70 g/ha [2, 10]: 0 to 29%; pest or weed control at 140 g/ha [2, 10]: 30 to 44%; pest or weed control at 70 g/ha [2, 14]: 0 to 29%; pest or weed control at 140 g/ha [2, 14]: 0 to 29%; pest or weed control at 70 g/ha [2, 15]: 75 to 84%; pest or weed control at 140 g/ha [2, 15]: 75 to 84%; pest or weed control at 70 g/ha [2, 16]: 45 to 59%; pest or weed control at 140 g/ha [2, 16]: 45 to 59%; pest or weed control at 70 g/ha [2, 17]: 45 to 59%; pest or weed control at 140 g/ha [2, 17]: 60 to 74%; melting point: 154 to 157 °C
2 | COC(=O)c1nc(-c2cc(F)c(C(F)F)cc2F)nc(N)c1OC [Compound 193] | 60 to 74 | 75 to 84 | 75 to 84 | 95 to 100 | 60 to 74 | 60 to 74 | 85 to 94 | 95 to 100 | 85 to 94 | 95 to 100 | 60 to 74 | 75 to 84 | 0 to 29 | 30 to 44 | 30 to 44 | 45 to 59 | 0 to 29 | 0 to 29 | 0 to 29 | 0 to 29 | pest or weed control at 70 g/ha [2, 14]: 0 to 29%; pest or weed control at 140 g/ha [2, 14]: 0 to 29%; pest or weed control at 70 g/ha [2, 15]: 0 to 29%; pest or weed control at 140 g/ha [2, 15]: 45 to 59%; pest or weed control at 70 g/ha [2, 16]: 0 to 29%; pest or weed control at 140 g/ha [2, 16]: 45 to 59%; pest or weed control at 70 g/ha [2, 18]: 0 to 29%; pest or weed control at 140 g/ha [2, 18]: 30 to 44%; pest or weed control at 70 g/ha [2, 17]: 0 to 29%; pest or weed control at 140 g/ha [2, 17]: 0 to 29%; melting point: 127.9 to 129.2 °C
3 | C=Cc1c(N)nc(-c2ccc(F)c(F)c2F)nc1C(=O)OC [Compound 197, Methyl 6-amino-2-(2,3,4-trifluorophenyl)-5-vinylpyrimidine-4-carboxylate] | 95 to 100 | 95 to 100 | 95 to 100 | 95 to 100 | 95 to 100 | 85 to 94 | 95 to 100 | 95 to 100 | 95 to 100 | 95 to 100 | 85 to 94 | 85 to 94 | 60 to 74 | 75 to 84 | 60 to 74 | 60 to 74 | 45 to 59 | 60 to 74 | 0 to 29 | 75 to 84 | pest or weed control at 70 g/ha [2, 10]: 0 to 29%; pest or weed control at 140 g/ha [2, 10]: 0 to 29%; pest or weed control at 70 g/ha [2, 14]: 0 to 29%; pest or weed control at 140 g/ha [2, 14]: 0 to 29%; pest or weed control at 70 g/ha [2, 15]: 0 to 29%; pest or weed control at 140 g/ha [2, 15]: 0 to 29%; pest or weed control at 70 g/ha [2, 16]: 60 to 74%; pest or weed control at 140 g/ha [2, 16]: 60 to 74%; pest or weed control at 70 g/ha [2, 17]: 60 to 74%; pest or weed control at 140 g/ha [2, 17]: 60 to 74%; melting point: 156 to 158 °C
